Test results as given in patent EP4700025A1, “AMIDE COMPOUND, PHARMACEUTICAL COMPOSITION COMPRISING SAME, AND USE THEREOF” (Suzhou Genhouse Bio Co., Ltd., priority 2023, dated 2024).
One block for each molecule: values may come before it.

Assays:
A549 = assay: CCK8 proliferation inhibition, A549; format: cell-based; conditions: Homo sapiens, 192 h, CCK8, 8 days after drug treatment
Procedure: (§1) The above normally growing cells were digested with a cell trypsinization solution, centrifuged, counted, and seeded into a 96-well plate at an appropriate cell density (2000 cells/well) at 100 µL/well. The next day after cell seeding, the compounds at different concentrations were added to the wells. Three replicate wells were set for each concentration point, and a corresponding DMSO negative control group was also set. CCK8 solution was added to each well 8 days after drug treatment. The plate was incubated at 37 °C for a period of time (OD450 of the vehicle group reached 1.0 or higher) before the absorbance at 450 nm was read using a microplate reader. The inhibition rates were calculated, and the EC50 values were determined by fitting using the GraphPad Prism 7.0 software. Table 2. EC50 values of compounds at cellular level

SDMA [1] = assay: SDMA Inhibition Assay in A549 cells; format: cell-based; conditions: Homo sapiens, A549, 96 hours
Procedure: (§2) The next day, the cells were treated with the compounds at different concentrations (with an initial concentration of 10 µM, 5-fold dilution, 9 concentration gradients). After 96 hours, the culture medium was pipetted out and the cells were washed 2 times with 100 µL of PBS. The cells were then fixed with 4% paraformaldehyde and incubated at room temperature for 20 min. The fixative solution was discarded, and the cells were washed with PBS. 150 µL of specialized blocking solution (containing 1% Triton-100) was added to each well for blocking at room temperature for 2 hours, and the plate was washed with PBS to remove excess blocking solution. […] The cells were incubated at 4 °C overnight. The next day, the cells were separately washed 2 times with 1× PBST. […] The cells were incubated at room temperature for 2 hours. The cells were washed 2 times with 1× PBST and 1 time with PBS. Fluorescence signals at 700 nm and 800 nm were separately detected using a Li-COR Odyssey two-color near-infrared laser imager. The inhibition rates were calculated, and the EC50 values were determined by fitting using the GraphPad Prism 7.0 software. Table 3. Inhibition of SDMA by test compounds

SDMA [2] = assay: SDMA Inhibition Assay in HCT-116-MTAP^-/- cells; format: cell-based; conditions: Homo sapiens, 96 hours
Procedure: as §2

HCT-116-MTAP^-/- = assay: CCK8 proliferation inhibition, HCT-116-MTAP^-/-; format: cell-based; conditions: Homo sapiens, 192 h; HCT-116-MTAP^-/- (MTAP-deficient); CCK8, 8 days after drug treatment
Procedure: as §1

HCT-116 = assay: CCK8 proliferation inhibition, HCT-116; format: cell-based; conditions: Homo sapiens, 192 h, CCK8, 8 days after drug treatment
Procedure: as §1

SDMA [3] = assay: SDMA Inhibition Assay in HCT-116 cells; format: cell-based; conditions: Homo sapiens, HCT-116, 96 hours
Procedure: as §2

[4] = Pharmacokinetic assay in rats; format: in vivo, SD rats; conditions: rat; for MRT inf: read-out: MRT(0-∞)
Procedure: In this experimental example, the pharmacokinetic behavior of the test compounds after administration by intravenous injection (IV) and oral gavage (PO) in SD rats was tested.
On the day of administration, rats were weighed for actual body weight, and the administration volume was calculated. Each compound was tested in two groups with 3 rats in each group; one group was subjected to administration by single intravenous injection, and the other group was subjected to administration by single oral gavage. The whole blood samples were collected via the jugular vein at prescribed time points (0.25 h, 0.5 h, 1 h, 2 h, 4 h, 8 h, and 24 h after administration). After the blood sample collection, the samples were immediately transferred to labeled commercial sample tubes containing K2-EDTA (0.85-1.15 mg), followed by centrifugation (3200× g, 4 °C, 10 min) and plasma collection. The plasma was transferred to a pre-cooled centrifuge tube, frozen in dry ice, and then stored in an ultra-low temperature freezer at -60 °C or lower until the LC-MS/MS analysis was performed.
Plasma concentrations were determined by the LC-MS/MS method. Plasma drug concentration data for the compounds were processed using a non-compartmental model in the WinNonlin Version 6.3 (Pharsight, Mountain View, CA) pharmacokinetic software. The relevant pharmacokinetic parameters were calculated by a linear-log trapezoidal method.

[5] = Pharmacokinetic assay in mice; format: in vivo, Balb/c mice; conditions: mouse; for MRT inf: read-out: MRT(0-∞)
Procedure: Eighteen male Balb/c mice aged 6 to 8 weeks were randomly divided into 2 groups (IV group and PO group). The corresponding compounds were administered to the animals in the IV group by tail intravenous injection at 2 mg/kg, and the corresponding compounds were administered to the animals in the PO group by oral gavage at 10 mg/kg or 100 mg/kg. The animals in the IV group were allowed free access to food and water, and the animals in the PO group were fasted overnight before administration and were fed 4 h after administration. Throughout the experiment, the animals were allowed free access to water. Plasma samples were separately collected at 0.083 h (only group IV), 0.25 h, 0.5 h, 1 h, 2 h, 4 h, 8 h, and 24 h after administration. About 100 µL of blood was collected from the orbit of the animal, placed into a 1.5 mL anticoagulation centrifuge tube, and centrifuged at 8000 rpm and 4 °C for 10 min. The upper plasma sample was transferred to an EP tube. The plasma samples were stored in a refrigerator at -80 °C until sample analysis. Pharmacokinetic parameters of the drug were calculated based on the drug concentration-time data, including the peak concentration Cmax, peak time Tmax, clearance rate CL, steady state apparent volume of distribution Vss, area under drug-time curve AUC, elimination half-life t1/2, bioavailability, and the like. Data below the 80% lower limit of quantification were excluded from the calculation of pharmacokinetic parameters.

[6] = male, Balb/c, plasma, 2 mg/kg, IV 2mpk
[7] = male, Balb/c, plasma, 10 mg/kg, PO 10mpk

SMILES: Cn1cnc(CN(Cc2ccc3c(c2)OC(F)(F)O3)C(=O)c2cc3c(cc2F)nc(N)c2cnn(C)c23)n1 [Example I-41]
EC50 (A549): 16.8 nM
EC50 (SDMA [1]): 1.1 nM
EC50 (SDMA [2]): 0.7 nM
EC50 (HCT-116-MTAP^-/-): 1.6 nM

SMILES: CC1OCc2c1c(N)nc1cc(F)c(C(=O)N3C(c4ccc5c(c4)OC(F)(F)O5)COC[C@H]3C)cc21 (some centres unmarked) [Example I-39]
EC50 (A549): 18.5 nM
EC50 (SDMA [1]): 0.9 nM
EC50 (SDMA [2]): 0.7 nM
EC50 (HCT-116-MTAP^-/-): 2.5 nM

SMILES: CN1CCN(CCN(Cc2ccc3c(c2)OC(F)(F)O3)C(=O)c2cc3c(cc2F)nc(N)c2cnn(C)c23)CC1 [Example I-31]
EC50 (HCT-116): 2710 nM
EC50 (SDMA [3]): 1120 nM
EC50 (SDMA [1]): 6.7 nM
EC50 (SDMA [2]): 8.7 nM
EC50 (HCT-116-MTAP^-/-): 35.8 nM

SMILES: Nc1nc2cnc(C(=O)N3CCOC[C@@H]3c3ccc4c(c3)OC(F)(F)O4)cc2c2c1COC2 [Example I-109]
AUC(0-t) ([5]; plasma, 2 mg/kg, IV 2mpk): 13.4 µM·h
AUC(0-t) ([5]; plasma, 10 mg/kg, PO 10mpk): 44.1 µM·h
Cmax ([5]; plasma, 10 mg/kg, PO 10mpk): 14700 nM
EC50 (HCT-116): 4850 nM
EC50 (SDMA [3]): 938 nM
EC50 (SDMA [1]): 2.8 nM
EC50 (SDMA [2]): 15 nM
EC50 (HCT-116-MTAP^-/-): 19.2 nM

SMILES: Cn1ncc2c(N)nc3ccc(C(=O)N4CCOCC4c4ccc5c(c4)OC(F)(F)O5)cc3c21 (single isomer, unassigned) [I-4 (PEAK1)]
EC50 (HCT-116): 6410 nM
EC50 (SDMA [3]): 906 nM
EC50 (SDMA [1]): 6.1 nM
EC50 (SDMA [2]): 9.1 nM
EC50 (HCT-116-MTAP^-/-): 47.7 nM

SMILES: Cn1ncc2c(N)nc3ccc(C(=O)N(Cc4ccc5c(c4)OC(F)(F)O5)C4CC4)cc3c21 [Example I-15]
EC50 (HCT-116): 5760 nM
EC50 (SDMA [3]): 628 nM
EC50 (SDMA [1]): 7.6 nM
EC50 (SDMA [2]): 10.3 nM
EC50 (HCT-116-MTAP^-/-): 34 nM

SMILES: CN(Cc1ccc2nn(C)cc2c1)C(=O)c1cc2c(cc1F)nc(N)c1cnn(C)c12 [Example I-20]
EC50 (HCT-116): > 10000 nM
EC50 (SDMA [3]): 862 nM
EC50 (SDMA [1]): 9.2 nM
EC50 (SDMA [2]): 5.5 nM
EC50 (HCT-116-MTAP^-/-): 16.1 nM

More lines, in order of falling EC50 (SDMA [1]), values ahead:

AUC(0-inf) ([4]; SD, plasma, 2 mg/kg, IV 2mpk): 6.91 µM·h
AUC(0-t) ([4]; SD, plasma, 2 mg/kg, IV 2mpk): 6.42 µM·h
C0 ([4]; SD, plasma, 2 mg/kg, IV 2mpk): 2340 nM
MRT inf ([4]; SD, plasma, 2 mg/kg, IV 2mpk): 4.3 h
Vd ([4]; SD, plasma, 2 mg/kg, IV 2mpk, read-out: Vz): 3.4 L/kg
AUC(0-inf) ([4]; SD, plasma, 10 mg/kg, PO 10mpk): 17.2 µM·h
AUC(0-t) ([4]; SD, plasma, 10 mg/kg, PO 10mpk): 14.8 µM·h
Cmax ([4]; SD, plasma, 10 mg/kg, PO 10mpk): 1680 nM
Tmax ([4]; SD, plasma, 10 mg/kg, PO 10mpk): 2.3 h
MRT inf ([4]; SD, plasma, 10 mg/kg, PO 10mpk): 7.2 h
CLz ([4]; IV 2mpk): 13 mL/min/kg
R_AUC(t/∞) ([4]; IV 2mpk): 91.6%
t1/2z ([4]; IV 2mpk): 3.5 h
R_AUC(t/∞) ([4]; PO 10mpk): 86.6%
t1/2z ([4]; PO 10mpk): 4.7 h
F ([4]; PO 10mpk (IV reference 2mpk; 0.2mpk for I-7)): 49.9%
AUC(0-inf) [5, 6]: 4.11 µM·h
AUC(0-t) [5, 6]: 3.53 µM·h
C0 [5, 6]: 1520 nM
MRT inf [5, 6]: 4 h
Vd ([5]; male, Balb/c, plasma, 2 mg/kg, IV 2mpk, read-out: Vz): 4.7 L/kg
AUC(0-inf) [5, 7]: 18.8 µM·h
AUC(0-t) [5, 7]: 18.1 µM·h
Cmax [5, 7]: 2190 nM
Tmax [5, 7]: 1 h
MRT inf [5, 7]: 7.1 h
CLz ([5]; IV 2mpk): 18.3 mL/min/kg
R_AUC(t/∞) ([5]; IV 2mpk): 85.8%
t1/2z ([5]; IV 2mpk): 2.8 h
R_AUC(t/∞) ([5]; PO 10mpk): 96.3%
t1/2z ([5]; PO 10mpk): 5.5 h
F ([5]; PO 10mpk vs IV 2mpk): 91.5%
EC50 (HCT-116): 6740 nM
EC50 (SDMA [3]): 1010 nM
EC50 (SDMA [1]): 5.1 nM
EC50 (SDMA [2]): 8.3 nM
EC50 (HCT-116-MTAP^-/-): 42.6 nM
SMILES: CN(Cc1ccc2c(c1)OC(F)(F)O2)C(=O)c1ccc2nc(N)c3cnn(C)c3c2c1 [Example I-2]

EC50 (HCT-116): 3440 nM
EC50 (SDMA [3]): 1020 nM
EC50 (SDMA [1]): 3.1 nM
EC50 (SDMA [2]): 3.1 nM
EC50 (HCT-116-MTAP^-/-): 18.3 nM
SMILES: CN(Cc1ccc2c(cnn2C)c1)C(=O)c1cc2c(cc1F)nc(N)c1cnn(C)c12 [Example I-18]

EC50 (HCT-116): 2610 nM
EC50 (SDMA [3]): 292 nM
EC50 (SDMA [1]): 1.9 nM
EC50 (SDMA [2]): 3 nM
EC50 (HCT-116-MTAP^-/-): 22 nM
SMILES: Cn1ncc2c(N)nc3cc(F)c(C(=O)N(CCN4CCOCC4)Cc4ccc5c(c4)OC(F)(F)O5)cc3c21 [Example I-21]
